This note sets out measurements from patent US20240208992A1, “MACROCYCLES AS CFTR MODULATORS” (Idorsia Pharmaceuticals Ltd, priority 2021, published 2024).

Structures are written as SMILES.

In this assay the target is human F508del-CFTR (Homo sapiens, UniProt P13569, DEL508-508). Briefly: F508del-CFTR cell surface expression (corrector activity), DiscoveRx ß-galactosidase complementation chemiluminescence assay in recombinant U2OS cell line.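 For all read-outs here: U2OS cells co-expressing ProLink-tagged F508del-CFTR and a membrane-anchored enzyme acceptor, where more surface CFTR restores β-galactosidase activity measured by chemiluminescence.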 The note with it: U2OS cell line, 16h compound incubation; for EC50: EC50, F508del-CFTR cell surface expression, geomean values; for Emax: U2OS, in relation to the Emax of the corrector lumacaftor (=100%), arithmetic mean values.
Sequence of human F508del-CFTR (P13569 with tags, fused parts or gaps DEL508-508): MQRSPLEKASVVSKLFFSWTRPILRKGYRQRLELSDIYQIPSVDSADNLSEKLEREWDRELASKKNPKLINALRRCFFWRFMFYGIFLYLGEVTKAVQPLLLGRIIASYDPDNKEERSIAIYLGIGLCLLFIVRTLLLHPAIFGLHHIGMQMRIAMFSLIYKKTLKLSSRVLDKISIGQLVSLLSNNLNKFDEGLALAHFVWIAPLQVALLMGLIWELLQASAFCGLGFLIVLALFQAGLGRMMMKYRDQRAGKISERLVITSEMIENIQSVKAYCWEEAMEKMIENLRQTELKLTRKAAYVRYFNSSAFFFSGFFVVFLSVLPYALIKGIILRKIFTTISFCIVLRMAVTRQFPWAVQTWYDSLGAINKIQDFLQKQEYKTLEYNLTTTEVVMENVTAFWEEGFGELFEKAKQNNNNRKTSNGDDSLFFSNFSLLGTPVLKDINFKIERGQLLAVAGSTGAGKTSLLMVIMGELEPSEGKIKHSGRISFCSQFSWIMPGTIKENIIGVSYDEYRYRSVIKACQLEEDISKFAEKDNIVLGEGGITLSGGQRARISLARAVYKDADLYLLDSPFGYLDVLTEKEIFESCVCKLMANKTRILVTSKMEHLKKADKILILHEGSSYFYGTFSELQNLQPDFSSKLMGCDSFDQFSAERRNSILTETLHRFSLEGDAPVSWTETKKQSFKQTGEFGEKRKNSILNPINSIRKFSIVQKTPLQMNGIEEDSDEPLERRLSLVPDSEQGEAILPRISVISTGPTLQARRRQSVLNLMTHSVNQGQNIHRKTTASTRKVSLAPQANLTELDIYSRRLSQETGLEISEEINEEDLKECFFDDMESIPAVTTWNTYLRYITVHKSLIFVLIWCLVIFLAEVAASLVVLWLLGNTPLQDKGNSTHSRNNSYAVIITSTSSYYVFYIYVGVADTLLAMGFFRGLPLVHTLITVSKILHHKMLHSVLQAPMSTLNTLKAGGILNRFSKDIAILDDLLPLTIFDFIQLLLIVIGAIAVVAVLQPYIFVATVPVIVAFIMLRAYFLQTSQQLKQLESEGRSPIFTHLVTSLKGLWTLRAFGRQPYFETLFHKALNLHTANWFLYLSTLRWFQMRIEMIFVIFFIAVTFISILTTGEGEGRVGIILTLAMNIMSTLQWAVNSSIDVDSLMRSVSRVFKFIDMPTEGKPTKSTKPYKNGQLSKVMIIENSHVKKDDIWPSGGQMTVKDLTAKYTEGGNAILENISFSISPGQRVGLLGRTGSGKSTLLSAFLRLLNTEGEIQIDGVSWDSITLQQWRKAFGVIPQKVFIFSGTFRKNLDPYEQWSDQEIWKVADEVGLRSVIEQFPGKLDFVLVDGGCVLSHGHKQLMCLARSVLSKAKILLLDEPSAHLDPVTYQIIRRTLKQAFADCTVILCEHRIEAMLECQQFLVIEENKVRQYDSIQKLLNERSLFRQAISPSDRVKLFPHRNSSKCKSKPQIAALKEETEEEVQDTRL

A word on the EC50: it is the concentration at which the effect is half-maximal. Usually Emax stands for the size of the effect at its maximum, as opposed to the concentration needed. Turning to `CN1C(=O)C[C@@H](C(=O)NCCc2ccc3c(c2)OCO3)NC(=O)c2c(ccc3ccccc23)OC[C@@H](Cc2ccccc2)NC(=O)CN(C[C@@H]2CCCCO2)C(=O)[C@@H]1CC1CCC1` [Example 337, (3S,7S,13R)-N-(2-(benzo[d][1,3]dioxol-5-yl)ethyl)-13-benzyl-7-(cyclobutylmethyl)-6-methyl-1,5,8,11-tetraoxo-9-(((S)-tetrahydro-2H-pyran-2-yl)methyl)-1,2,3,4,5,6,7,8,9,10,11,12,13,14-tetradecahydronaphtho[1,2-p][1]oxa[4,7,10,14]tetraazacycloheptadecine-3-carboxamide], the EC50 stood at 0.452 µM and the maximal effect (Emax) amounted to 116%.
For `CN1C(=O)C[C@@H](C(=O)NCCc2ccc3c(c2)OCO3)NC(=O)c2c(ccc3ccccc23)OC[C@@H](Cc2ccccc2)NC(=O)CN(C[C@H]2CCCCO2)C(=O)[C@@H]1CC1CCC1` [Example 338, (3S,7S,13R)-N-(2-(benzo[d][1,3]dioxol-5-yl)ethyl)-13-benzyl-7-(cyclobutylmethyl)-6-methyl-1,5,8,11-tetraoxo-9-(((R)-tetrahydro-2H-pyran-2-yl)methyl)-1,2,3,4,5,6,7,8,9,10,11,12,13,14-tetradecahydronaphtho[1,2-p][1]oxa[4,7,10,14]tetraazacycloheptadecine-3-carboxamide] the same measures were 0.292 µM and 173%.
Take `C#CC[C@H]1C(=O)N(CCC2CCCCC2)CC(=O)N[C@H](Cc2ccccc2)COc2ccc3ccccc3c2C(=O)N[C@H](C(=O)NCCc2ccc3c(c2)OCO3)CC(=O)N1C` [Example 339, (3S,7S,13R)-N-(2-(benzo[d][1,3]dioxol-5-yl)ethyl)-13-benzyl-9-(2-cyclohexylethyl)-6-methyl-1,5,8,11-tetraoxo-7-(prop-2-yn-1-yl)-1,2,3,4,5,6,7,8,9,10,11,12,13,14-tetradecahydronaphtho[1,2-p][1]oxa[4,7,10,14]tetraazacycloheptadecine-3-carboxamide]: the EC50 came to 0.195 µM and the Emax amounted to 237%.
Take `CN1C(=O)C[C@@H](C(=O)NCCc2ccc3c(c2)OCO3)NC(=O)c2c(ccc3ccccc23)OC[C@@H](Cc2ccccc2)NC(=O)CN(C[C@H]2CCCCO2)C(=O)[C@@H]1CC1CC1` [Example 340, (3S,7S,13R)-N-(2-(benzo[d][1,3]dioxol-5-yl)ethyl)-13-benzyl-7-(cyclopropylmethyl)-6-methyl-1,5,8,11-tetraoxo-9-(((R)-tetrahydro-2H-pyran-2-yl)methyl)-1,2,3,4,5,6,7,8,9,10,11,12,13,14-tetradecahydronaphtho[1,2-p][1]oxa[4,7,10,14]tetraazacycloheptadecine-3-carboxamide]: the EC50 turned out to be 0.278 µM and the Emax came to 139%.
As to `CN1C(=O)C[C@@H](C(=O)NCCc2ccc3c(c2)OCO3)NC(=O)c2c(ccc3ccccc23)OC[C@@H](Cc2ccccc2)NC(=O)CN(CCC2CCCCC2)C(=O)[C@@H]1CC1CC1` [Example 341, (3S,7S,13R)-N-(2-(benzo[d][1,3]dioxol-5-yl)ethyl)-13-benzyl-9-(2-cyclohexylethyl)-7-(cyclopropylmethyl)-6-methyl-1,5,8,11-tetraoxo-1,2,3,4,5,6,7,8,9,10,11,12,13,14-tetradecahydronaphtho[1,2-p][1]oxa[4,7,10,14]tetraazacycloheptadecine-3-carboxamide], the EC50 was determined as 0.144 µM and the Emax worked out at 237%.
Consider `COc1cccc(CCNC(=O)[C@@H]2CC(=O)N(C)[C@@H](CC(C)C)C(=O)N3CCCC[C@H]3C(=O)N[C@H](Cc3ccccc3)COc3ccc4ncoc4c3C(=O)N2)c1` [Example 342, (8S,12S,18aS,21R)-21-benzyl-12-isobutyl-N-(3-methoxyphenethyl)-11-methyl-6,10,13,19-tetraoxo-6,7,8,9,10,11,12,13,16,17,18,18a,19,20,21,22-hexadecahydro-15H-oxazolo[4′,5′:5,6]benzo[1,2-p]pyrido[2,1-f][1]oxa[4,7,10,14]tetraazacycloheptadecine-8-carboxamide], for which the EC50 amounted to 0.464 µM and the Emax came out at 128%.
In the same order, the values of `COc1cccc(CCNC(=O)[C@@H]2CC(=O)N(C)[C@@H](CC(C)C)C(=O)N3CCCC[C@@H]3C(=O)N[C@H](Cc3ccccc3)COc3ccc4ncoc4c3C(=O)N2)c1` [Example 343, (8S,12S,18aR,21R)-21-benzyl-12-isobutyl-N-(3-methoxyphenethyl)-11-methyl-6,10,13,19-tetraoxo-6,7,8,9,10,11,12,13,16,17,18,18a,19,20,21,22-hexadecahydro-15H-oxazolo[4′,5′:5,6]benzo[1,2-p]pyrido[2,1-f][1]oxa[4,7,10,14]tetraazacycloheptadecine-8-carboxamide] are 0.332 µM and 270%.
In the same order, the values of `Cc1cc(CCNC(=O)[C@@H]2CC(=O)N(C)[C@@H](CC(C)C)C(=O)N(CCC3CCCCC3)CC(=O)N[C@H](Cc3ccccc3)COc3cnc4ccccc4c3C(=O)N2)on1` [Example 344, (3S,7S,13R)-13-benzyl-9-(2-cyclohexylethyl)-7-isobutyl-6-methyl-N-(2-(3-methylisoxazol-5-yl)ethyl)-1,5,8,11-tetraoxo-1,2,3,4,5,6,7,8,9,10,11,12,13,14-tetradecahydro-[1]oxa[4,7,10,14]tetraazacycloheptadecino[17,16-c]quinoline-3-carboxamide] are 0.126 µM and 284%.
For `CC(C)C[C@H]1C(=O)N(CCC2CCCCC2)CC(=O)N[C@H](Cc2ccccc2)COc2ccc3c(c2C(=O)N[C@H](C(=O)NCCc2ccc4c(c2)OCO4)CC(=O)N1C)OCO3` [Example 345, (8R,14S,18S)-N-(2-(benzo[d][1,3]dioxol-5-yl)ethyl)-8-benzyl-12-(2-cyclohexylethyl)-14-isobutyl-15-methyl-10,13,16,20-tetraoxo-7,8,9,10,11,12,13,14,15,16,17,18,19,20-tetradecahydro-[1,3]dioxolo[4′,5′:5,6]benzo[1,2-p][1]oxa[4,7,10,14]tetraazacycloheptadecine-18-carboxamide] the same measures were 0.095 µM and 268%.
As to `COc1cccc(CCNC(=O)[C@@H]2CC(=O)N(C)[C@@H](CC(C)C)C(=O)N(CCC3CCCCC3)CC(=O)N[C@H](Cc3ccccc3)COc3ccc4c(c3C(=O)N2)OCO4)c1` [Example 346, (8R,14S,18S)-8-benzyl-12-(2-cyclohexylethyl)-14-isobutyl-N-(3-methoxyphenethyl)-15-methyl-10,13,16,20-tetraoxo-7,8,9,10,11,12,13,14,15,16,17,18,19,20-tetradecahydro-[1,3]dioxolo[4′,5′:5,6]benzo[1,2-p][1]oxa[4,7,10,14]tetraazacycloheptadecine-18-carboxamide], the EC50 is 0.106 µM and the Emax came out at 282%.
For `[2H]C([2H])([2H])Oc1cccc(CCNC(=O)[C@@H]2CC(=O)N(C)[C@@H](CC(C)C)C(=O)N(CCC3CCCCC3)CC(=O)N[C@H](Cc3ccccc3)COc3ccc4c(c3C(=O)N2)OCO4)c1` [Example 347, (8R,14S,18S)-8-benzyl-12-(2-cyclohexylethyl)-14-isobutyl-N-(3-(methoxy-d3)phenethyl)-15-methyl-10,13,16,20-tetraoxo-7,8,9,10,11,12,13,14,15,16,17,18,19,20-tetradecahydro-[1,3]dioxolo[4′,5′:5,6]benzo[1,2-p][1]oxa[4,7,10,14]tetraazacycloheptadecine-18-carboxamide], the EC50 came to 0.131 µM and the Emax was 282%.
For `COc1cccc(CCNC(=O)[C@@H]2CC(=O)N(C)[C@@H](CC(C)C)C(=O)N3CCN(C4CC4)C[C@@H]3C(=O)N[C@H](Cc3ccccc3)COc3ccc4ncn(C)c4c3C(=O)N2)c1` [Example 348, (8S,12S,18aR,21R)-21-benzyl-17-cyclopropyl-12-isobutyl-N-(3-methoxyphenethyl)-5,11-dimethyl-6,10,13,19-tetraoxo-6,7,8,9,10,11,12,13,16,17,18,18a,19,20,21,22-hexadecahydro-5H,15H-imidazo[4′,5′:5,6]benzo[1,2-p]pyrazino[2,1-f][1]oxa[4,7,10,14]tetraazacycloheptadecine-8-carboxamide] the same measures were 0.34 µM and 155%.
For `CC(C)C[C@H]1C(=O)N(C)CC(=O)N[C@H](Cc2ccccc2)COc2cnc3c(F)cccc3c2C(=O)N[C@H](C(=O)NCCc2ccc3c(c2)OCO3)CC(=O)N1C` [Example 349, (3S,7S,13R)-N-(2-(benzo[d][1,3]dioxol-5-yl)ethyl)-13-benzyl-18-fluoro-7-isobutyl-6,9-dimethyl-1,5,8,11-tetraoxo-1,2,3,4,5,6,7,8,9,10,11,12,13,14-tetradecahydro-[1]oxa[4,7,10,14]tetraazacycloheptadecino[17,16-c]quinoline-3-carboxamide] the same measures were 0.597 µM and 258%.
In the same order, the values of `COc1cccc(CCNC(=O)[C@@H]2CC(=O)N(C)[C@@H](CC(C)C)C(=O)N(C)CC(=O)N[C@H](Cc3ccccc3)COc3cnc4c(F)cccc4c3C(=O)N2)c1` [Example 350, (3S,7S,13R)-13-benzyl-18-fluoro-7-isobutyl-N-(3-methoxyphenethyl)-6,9-dimethyl-1,5,8,11-tetraoxo-1,2,3,4,5,6,7,8,9,10,11,12,13,14-tetradecahydro-[1]oxa[4,7,10,14]tetraazacycloheptadecino[17,16-c]quinoline-3-carboxamide] are 0.546 µM and 299%.
For the compound `COc1cccc(CCNC(=O)[C@@H]2CC(=O)N(C)[C@@H](CC(C)C)C(=O)N3CCCC[C@@H]3C(=O)N[C@H](Cc3ccccc3)COc3ccc4oc(C)nc4c3C(=O)N2)c1` [Example 351, (8S,12S,18aR,21R)-21-benzyl-12-isobutyl-N-(3-methoxyphenethyl)-4,11-dimethyl-6,10,13,19-tetraoxo-6,7,8,9,10,11,12,13,16,17,18,18a,19,20,21,22-hexadecahydro-15H-oxazolo[5′,4′:5,6]benzo[1,2-p]pyrido[2,1-f][1]oxa[4,7,10,14]tetraazacycloheptadecine-8-carboxamide], the EC50 came to 0.756 µM and the Emax was 127%.
